Data as given in patent US12577211B2, “Probenecid compounds for the treatment of inflammasome-mediated lung disease” (Bacainn Biotherapeutics, Ltd., priority 2020, dated 2026).

Experiments:
NLRP3 inflammasome = biological target: T1, NLRP3 inflammasome (Mus musculus, UniProt Q8R4B8); test: IL-1β secretion (ELISA) in LPS-primed iBMDMs stimulated with silica or nigericin; type: cell-based, murine; conditions: LPS 100 ng/mL primed iBMDMs; silica 250 μg/mL or nigericin 6 μM; compound 300, 150, 30, 3 μM
T1 construct: Immortalized wild-type C57BL/6 bone-marrow derived macrophages (iBMDMs); endogenous in cells; host or cells: immortalized wild-type C57BL/6 bone-marrow derived macrophages (iBMDMs), LPS-primed
T1 sequence (Q8R4B8 whole entry): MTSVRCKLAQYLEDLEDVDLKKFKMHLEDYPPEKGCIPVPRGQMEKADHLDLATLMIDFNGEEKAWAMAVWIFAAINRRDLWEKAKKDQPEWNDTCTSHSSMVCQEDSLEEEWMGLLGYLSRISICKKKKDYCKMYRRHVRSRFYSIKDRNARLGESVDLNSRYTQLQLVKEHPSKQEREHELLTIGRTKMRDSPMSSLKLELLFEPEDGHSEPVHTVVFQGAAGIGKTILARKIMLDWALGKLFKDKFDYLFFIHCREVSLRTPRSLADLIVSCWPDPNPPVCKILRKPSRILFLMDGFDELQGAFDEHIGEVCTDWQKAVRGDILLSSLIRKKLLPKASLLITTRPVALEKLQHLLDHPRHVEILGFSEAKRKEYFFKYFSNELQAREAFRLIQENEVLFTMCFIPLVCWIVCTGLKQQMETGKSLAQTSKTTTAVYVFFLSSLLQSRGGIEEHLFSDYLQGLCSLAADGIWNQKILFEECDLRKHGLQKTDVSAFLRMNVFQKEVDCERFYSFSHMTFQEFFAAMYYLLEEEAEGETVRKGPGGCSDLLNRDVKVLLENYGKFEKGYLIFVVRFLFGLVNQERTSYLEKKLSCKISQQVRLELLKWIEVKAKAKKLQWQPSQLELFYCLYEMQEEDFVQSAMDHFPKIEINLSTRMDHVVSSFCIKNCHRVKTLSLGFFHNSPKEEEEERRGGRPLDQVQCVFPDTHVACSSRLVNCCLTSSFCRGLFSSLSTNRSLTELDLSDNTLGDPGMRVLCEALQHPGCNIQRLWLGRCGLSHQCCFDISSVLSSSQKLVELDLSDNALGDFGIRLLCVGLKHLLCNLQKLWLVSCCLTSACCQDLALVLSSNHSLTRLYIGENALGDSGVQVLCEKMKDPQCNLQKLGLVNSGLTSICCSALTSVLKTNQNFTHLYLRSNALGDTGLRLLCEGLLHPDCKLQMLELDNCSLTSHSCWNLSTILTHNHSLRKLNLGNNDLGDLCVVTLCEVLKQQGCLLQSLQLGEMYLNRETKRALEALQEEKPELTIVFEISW
Experimental: In vitro stimulation of murine macrophages. Immortalized wild-type C57BL/6 bone-marrow derived macrophages (iBMDMs) were grown in DMEM supplemented with 10% heat inactivated FBS and 2 mM glutamine. iBMDMs were seeded in 96-well plates 24 hours prior incubation with lipopolysaccharide (LPS; 100 ng/mL) for 3 hours. Cells were then incubated with a control probenecid compound (probenecid dissolved in DMSO (Prob/D), probenecid dissolved in PBS (Prob/P)) or one of the probenecid analogs of the present technology (BT032, BT132, BT133, BT134, BT135, BT136, BT137, BT138, BT139, or BT140) at concentrations of 300 μM, 150 μM, 30 μM, or 3 μM 1 hour prior to stimulation with NLRP3 inflammasome activators, silica (250 μg/mL) or nigericin (6 μM). After an additional 6 hours, cell supernatants were collected and levels of IL-1β were quantified by ELISA. These experiments were run in triplicate three times.

[1] = test system: HKx31 (H3N2) influenza A virus; type: in vivo, C57BL/6 mice
NLRP1 [2] = test: NLRP1-mediated inflammasome activity, secreted IL-1β ELISA in immortalized BMDMs (L18-MDP); type: cell-based, murine; conditions: for NLRP1 (L18-MDP)-induced inflammasome activation: BT032 20, 100 μM, MCC950 5 μM
[3] = test system: non-canonical inflammasome; test: Non-canonical inflammasome activity (LPS (B4)), secreted IL-1β ELISA in immortalized BMDMs; type: cell-based, murine; conditions: BT032 20, 100 μM
AIM2 = biological target: T2, AIM2 (Mus musculus, UniProt Q91VJ1); test: AIM2 (poly dA:dT)-mediated inflammasome activation, secreted IL-1β ELISA in immortalized BMDMs; type: cell-based, murine; conditions: BT032 20, 100 μM
T2 sequence (Q91VJ1 1-354): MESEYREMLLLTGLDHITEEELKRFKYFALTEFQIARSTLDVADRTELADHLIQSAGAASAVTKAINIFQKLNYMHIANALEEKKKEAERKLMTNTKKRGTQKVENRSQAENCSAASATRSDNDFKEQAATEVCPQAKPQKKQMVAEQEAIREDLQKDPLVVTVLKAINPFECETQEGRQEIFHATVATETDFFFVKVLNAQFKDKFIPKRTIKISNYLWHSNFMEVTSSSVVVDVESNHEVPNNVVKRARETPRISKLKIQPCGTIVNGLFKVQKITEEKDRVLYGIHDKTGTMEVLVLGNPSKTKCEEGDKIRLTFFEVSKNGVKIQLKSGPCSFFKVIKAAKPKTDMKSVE

NLRC4 = NLRC4 (Mus musculus, UniProt Q3UP24); test: NLRC4 (Flagellin)-mediated inflammasome activation, secreted IL-1β ELISA in immortalized BMDMs; type: cell-based, murine; conditions: BT032 20, 100 μM
NLRC4, sequence (Q3UP24 whole entry): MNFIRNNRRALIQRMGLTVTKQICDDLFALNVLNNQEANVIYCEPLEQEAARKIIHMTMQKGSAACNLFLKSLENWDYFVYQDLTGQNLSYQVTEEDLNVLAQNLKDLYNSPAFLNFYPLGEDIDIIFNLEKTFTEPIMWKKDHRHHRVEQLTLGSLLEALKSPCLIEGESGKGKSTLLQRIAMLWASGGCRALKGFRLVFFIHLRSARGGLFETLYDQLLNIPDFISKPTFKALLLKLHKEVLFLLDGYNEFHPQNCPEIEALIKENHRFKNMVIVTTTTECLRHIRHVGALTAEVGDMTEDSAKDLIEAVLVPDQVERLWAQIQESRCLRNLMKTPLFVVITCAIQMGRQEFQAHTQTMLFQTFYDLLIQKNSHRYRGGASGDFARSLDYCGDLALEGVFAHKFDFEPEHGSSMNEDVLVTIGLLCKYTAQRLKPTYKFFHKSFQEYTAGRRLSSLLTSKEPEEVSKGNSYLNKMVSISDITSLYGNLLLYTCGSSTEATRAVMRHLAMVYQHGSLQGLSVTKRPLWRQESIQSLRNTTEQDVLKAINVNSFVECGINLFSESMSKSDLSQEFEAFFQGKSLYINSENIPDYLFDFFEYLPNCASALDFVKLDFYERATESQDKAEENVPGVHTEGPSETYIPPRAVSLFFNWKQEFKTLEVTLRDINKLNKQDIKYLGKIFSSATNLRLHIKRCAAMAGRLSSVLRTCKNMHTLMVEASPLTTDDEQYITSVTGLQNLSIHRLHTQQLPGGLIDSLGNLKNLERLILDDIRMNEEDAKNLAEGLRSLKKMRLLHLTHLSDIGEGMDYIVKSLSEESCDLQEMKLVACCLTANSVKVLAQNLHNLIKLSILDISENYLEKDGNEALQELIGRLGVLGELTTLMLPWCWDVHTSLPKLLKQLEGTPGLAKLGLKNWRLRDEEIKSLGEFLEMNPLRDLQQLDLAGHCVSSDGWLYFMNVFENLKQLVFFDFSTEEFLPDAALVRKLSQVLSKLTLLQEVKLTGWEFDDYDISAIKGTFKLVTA

NLRP1 [4] = biological target: T3, NLRP1 (Homo sapiens, UniProt Q9C000); test: poly I:C NLRP1 activation in primary human bronchial epithelial cells, secreted IL-1β ELISA; type: cell-based; conditions: 20, 100, 350 μM
T3 construct: Primary bronchial epithelial cells (PBEC) were obtained from bronchial brushings; endogenous in cells; host or cells: primary human bronchial epithelial cells (PBEC) from bronchial brushings
T3 sequence (Q9C000 1-1212 limits assumed): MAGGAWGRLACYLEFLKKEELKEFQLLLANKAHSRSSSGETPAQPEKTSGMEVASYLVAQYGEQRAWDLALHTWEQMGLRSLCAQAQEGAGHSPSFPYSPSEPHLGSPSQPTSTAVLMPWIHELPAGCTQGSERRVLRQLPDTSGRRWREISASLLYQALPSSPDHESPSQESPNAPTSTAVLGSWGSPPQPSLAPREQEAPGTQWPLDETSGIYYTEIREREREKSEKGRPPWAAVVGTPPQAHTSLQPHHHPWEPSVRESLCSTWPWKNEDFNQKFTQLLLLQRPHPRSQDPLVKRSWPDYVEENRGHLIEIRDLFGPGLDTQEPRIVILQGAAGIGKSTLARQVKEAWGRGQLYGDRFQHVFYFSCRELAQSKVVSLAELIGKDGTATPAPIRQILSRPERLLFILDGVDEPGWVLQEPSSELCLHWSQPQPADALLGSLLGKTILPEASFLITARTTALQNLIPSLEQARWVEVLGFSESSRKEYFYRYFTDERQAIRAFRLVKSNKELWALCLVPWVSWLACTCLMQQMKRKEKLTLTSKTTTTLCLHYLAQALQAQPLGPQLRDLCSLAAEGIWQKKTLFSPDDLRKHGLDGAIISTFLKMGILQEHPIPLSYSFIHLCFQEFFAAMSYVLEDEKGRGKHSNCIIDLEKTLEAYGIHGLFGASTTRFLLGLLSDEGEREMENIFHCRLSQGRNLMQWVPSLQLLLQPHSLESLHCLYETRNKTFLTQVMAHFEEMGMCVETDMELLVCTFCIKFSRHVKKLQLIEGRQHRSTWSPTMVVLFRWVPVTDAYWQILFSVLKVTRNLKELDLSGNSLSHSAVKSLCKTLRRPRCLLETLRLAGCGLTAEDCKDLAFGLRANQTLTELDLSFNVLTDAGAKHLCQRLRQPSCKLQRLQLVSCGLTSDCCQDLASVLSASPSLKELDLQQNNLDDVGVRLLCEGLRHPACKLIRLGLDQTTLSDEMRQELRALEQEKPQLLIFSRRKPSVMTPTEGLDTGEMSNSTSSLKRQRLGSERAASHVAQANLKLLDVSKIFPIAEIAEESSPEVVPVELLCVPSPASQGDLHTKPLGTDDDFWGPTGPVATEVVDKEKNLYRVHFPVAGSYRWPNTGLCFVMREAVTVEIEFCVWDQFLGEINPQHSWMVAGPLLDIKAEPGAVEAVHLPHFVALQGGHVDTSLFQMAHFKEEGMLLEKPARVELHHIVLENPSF
T3 sequence (Q9C000 1213-1473 limits assumed): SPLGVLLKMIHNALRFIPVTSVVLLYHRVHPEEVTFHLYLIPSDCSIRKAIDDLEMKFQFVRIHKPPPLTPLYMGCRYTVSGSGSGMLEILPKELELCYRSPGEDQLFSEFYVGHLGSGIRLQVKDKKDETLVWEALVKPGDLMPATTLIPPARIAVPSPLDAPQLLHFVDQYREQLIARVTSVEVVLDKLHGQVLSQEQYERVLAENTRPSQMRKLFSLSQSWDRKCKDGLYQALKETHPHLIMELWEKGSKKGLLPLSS
Experimental: Methods. Primary bronchial epithelial cells (PBEC) were obtained from bronchial brushings and cultured under submerged conditions on collagen-coated flasks in supplemented bronchial epithelial growth medium. PBECs were seeded at 2.5×10^5/ml cells in collagen-coated 96 well plates overnight.

[5] = test system: ASC specks (NLRP3 inflammasome complex); test: Nigericin-induced ASC speck formation in ASC-cerulean/NLRP3 macrophages; type: cell-based; conditions: 350 μM, 60 mins before nigericin 3 μM for 90 mins
NLRP1 [6] = test: NLRP1 (L18-MDP)-induced inflammasome activation in immortalized BMDMs, secreted IL-1β ELISA (Example 10); type: cell-based; conditions: 20, 100, 350 μM; L18-MDP 100 μg/mL, 16 hours
NLRP3 = NLRP3 (Mus musculus, UniProt Q8R4B8); test: NLRP3-mediated inflammasome activity, secreted IL-1β ELISA in LPS-primed immortalized BMDMs (nigericin, MSU, silica)
NLRP3, sequence (Q8R4B8 whole entry): as the sequence (Q8R4B8 whole entry) above

Compound: CCCN(CCC)S(=O)(=O)c1ccc(-c2ccc(CCCC(=O)O)cc2)cc1 [BT032, 4-(4′-(N,N-dipropylsulfamoyl)-[1,1′-biphenyl]-4-yl)butanoic acid]
- potency in reducing IL-1β secretion compared with control probenecid compounds (NLRP3 inflammasome): more potent than the control probenecid compounds
- survival of mice ([1]; […], survival without treatment 5 days): 7-9 days post-infection
- pulmonary inflammation and cellular infiltrates in BAL (total cells, alveolar macrophages, neutrophils, Ly6C+ macrophages, dendritic cells, MCP-1) ([1]; mouse, in vivo): reduce hyperinflammation in the airways
- NLRP1 (L18-MDP)-induced inflammasome activation (NLRP1 [2]): dose-dependently inhibited
- IC50 (NLRP1 [2]; L18-MDP 100 μg/mL, drug 3.9-350 μM, read-out: IC50, inhibition of NLRP1-mediated inflammasome activity): 30 µM
- non-canonical inflammasome activity (LPS (B4)) [3]: limited impact
- AIM2 (poly dA:dT)-mediated inflammasome activation (AIM2): no effect
- NLRC4 (Flagellin)-mediated inflammasome activation (NLRC4): no effect
- poly I:C NLRP1 activation (IL-1β secretion) (NLRP1 [4]): inhibited poly I:C NLRP1 activation
- ASC specks in cells [5]: substantially reduced ASC specks
- NLRP1 (L18-MDP)-induced inflammasome activation (secreted IL-1β) (NLRP1 [6]): dose-dependently inhibited
- IC50 (NLRP3): 30 µM
- NLRP3 (Nigericin, MSU, Silica)-induced inflammasome activation (NLRP3; BT032 20, 100 μM, MCC950 5 μM, secreted IL-1β): dose-dependently inhibited

Compound: CCCN(CCC)S(=O)(=O)c1ccc(N2CCC(CCCC(=O)O)CC2)cc1 [BT135, 4-(1-(4-(N,N-dipropylsulfamoyl)-phenyl)piperidin-4-yl)butanoic acid]
- NLRP1 (L18-MDP)-induced inflammasome activation (secreted IL-1β) (NLRP1 [6]): dose-dependently inhibited

Compound: CCCN(CCC)S(=O)(=O)c1ccc(-c2nc(CCCC(=O)O)cs2)cc1 [BT136, 4-(2-(4-(N,N-dipropylsulfamoyl)phenyl)thiazol-4-yl)butanoic acid]
- potency in reducing IL-1β secretion compared with control probenecid compounds (NLRP3 inflammasome): more potent than the control probenecid compounds
- NLRP1 (L18-MDP)-induced inflammasome activation (secreted IL-1β) (NLRP1 [6]): dose-dependently inhibited

Compound: CC(C)(O)c1coc(S(=O)(=O)NC(=O)Nc2c3c(cc4c2CCC4)CCC3)c1 [MCC950, reference compound]
- NLRP1 (L18-MDP)-induced inflammasome activation (NLRP1 [2]): no impact upon NLRP1 activity
